Earlier results in patent US20240423898A1, “LONGEVITY EYE CREAM” (Wellbeam Consumer Health Intermediate, LLC, priority 2023, published 2024).

Legend:
skin = conditions: topical application
under-eye dark circles = conditions: in vivo

Compound	improvement in lines and wrinkles, pigmentation, elasticity, firmness, and overall reduction in photo-damage (skin)	irritating effect on the skin (skin)	under-eye dark circles (under-eye dark circles)
C=C[C@@](C)(/C=C/c1ccc(O)cc1)CCC=C(C)C [bakuchiol]	significant improvement	no irritating effect on the skin	–
Cn1c(=O)c2c(ncn2C)n(C)c1=O [caffeine]	–	–	can reduce under-eye dark circles
